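These data come from cells grown in 96-well plates and exposed to compound for 48 hours at five concentrations. Abbreviation: GI50, concentration required for 50% inhibition of growth.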 Activity calls are given as the source filed them. Cut-off read from the data, not from the text of the source: active = GI50 up to about 1.1 µM and inactive = higher.
Columns and labels:
Assay in all cases: NCI anticancer screen, dose series, 48 h
UO-31 = system: UO-31
MDA-MB-435 = system: MDA-MB-435
HOP-92 = system: HOP-92
Malme-3M = system: Malme-3M
HCT-15 = system: HCT-15
OVCAR-3 = system: OVCAR-3
OVCAR-5 = system: OVCAR-5
NCI/ADR-RES = system: NCI/ADR-RES
MDA-N = system: MDA-N
KM12 = system: KM12
MCF7 = system: MCF7
HOP-62 = system: HOP-62
OVCAR-8 = system: OVCAR-8
SNB-75 = system: SNB-75
SNB-19 = system: SNB-19
786-0 = system: 786-0
UACC-257 = system: UACC-257
T47D = system: T47D
ACHN = system: ACHN
COLO 205 = system: COLO 205
CCRF-CEM = system: CCRF-CEM
SW-620 = system: SW-620
SK-OV-3 = system: SK-OV-3
CAKI-1 = system: CAKI-1
SK-MEL-5 = system: SK-MEL-5
HT-29 = system: HT-29
RXF 393 = system: RXF 393
BT-549 = system: BT-549
HL-60 = system: HL-60
SK-MEL-28 = system: SK-MEL-28
NCI-H23 = system: NCI-H23
SF-295 = system: SF-295
TK-10 = system: TK-10
MOLT-4 = system: MOLT-4
SF-268 = system: SF-268
NCI-H226 = system: NCI-H226
DU-145 = system: DU-145
K562 = system: K562
SN12C = system: SN12C
OVCAR-4 = system: OVCAR-4
Hs-578T = system: Hs-578T
LOX IMVI = system: LOX IMVI
A549 = system: A549
A498 = system: A498
U-251 = system: U-251
NCI-H460 = system: NCI-H460
NCI-H522 = system: NCI-H522
IGROV-1 = system: IGROV-1
UACC-62 = system: UACC-62
MDA-MB-231 = system: MDA-MB-231
EKVX = system: EKVX
HCT-116 = system: HCT-116
HCC 2998 = system: HCC 2998
SF-539 = system: SF-539
M14 = system: M14
SR = system: SR
PC-3 = system: PC-3
SK-MEL-2 = system: SK-MEL-2

Cc1nn2c(C(=O)N/N=C/c3ccc([N+](=O)[O-])cc3)c(C)nc2s1
GI50 (UO-31): 34.4 µM (inactive) | GI50 (MDA-MB-435): > 100 µM (inactive) | GI50 (HOP-92): > 100 µM (inactive) | GI50 (Malme-3M): > 100 µM (inactive) | GI50 (HCT-15): > 100 µM | GI50 (OVCAR-3): > 100 µM (inactive) | GI50 (OVCAR-5): > 100 µM (inactive) | GI50 (NCI/ADR-RES): > 100 µM (inactive) | GI50 (MDA-N): > 100 µM (inactive) | GI50 (KM12): > 100 µM (inactive) | GI50 (MCF7): 90.4 µM (inactive) | GI50 (HOP-62): 46.5 µM (inactive) | GI50 (OVCAR-8): > 100 µM (inactive) | GI50 (SNB-75): 50.5 µM (inactive) | GI50 (SNB-19): 45.9 µM (inactive) | GI50 (786-0): > 100 µM (inactive) | GI50 (UACC-257): > 100 µM (inactive) | GI50 (T47D): > 100 µM (inactive) | GI50 (ACHN): 50 µM (inactive) | GI50 (COLO 205): > 100 µM (inactive) | GI50 (CCRF-CEM): > 100 µM (inactive) | GI50 (SW-620): > 100 µM (inactive) | GI50 (SK-OV-3): 28.4 µM (inactive) | GI50 (CAKI-1): > 100 µM (inactive) | GI50 (SK-MEL-5): > 100 µM (inactive) | GI50 (HT-29): > 100 µM (inactive) | GI50 (RXF 393): > 100 µM (inactive) | GI50 (BT-549): > 100 µM (inactive) | GI50 (HL-60): > 100 µM (inactive) | GI50 (SK-MEL-28): > 100 µM (inactive) | GI50 (NCI-H23): > 100 µM (inactive) | GI50 (SF-295): > 100 µM (inactive) | GI50 (TK-10): 36.7 µM (inactive) | GI50 (MOLT-4): 41 µM (inactive) | GI50 (SF-268): > 100 µM (inactive) | GI50 (NCI-H226): > 100 µM (inactive) | GI50 (DU-145): > 100 µM (inactive) | GI50 (K562): 94.2 µM (inactive) | GI50 (SN12C): > 100 µM (inactive) | GI50 (OVCAR-4): > 100 µM (inactive) | GI50 (Hs-578T): > 100 µM (inactive) | GI50 (LOX IMVI): > 100 µM (inactive) | GI50 (A549): > 100 µM (inactive) | GI50 (A498): > 100 µM (inactive) | GI50 (U-251): 23.6 µM (inactive) | GI50 (NCI-H460): > 100 µM (inactive) | GI50 (NCI-H522): 51.2 µM (inactive) | GI50 (IGROV-1): > 100 µM (inactive) | GI50 (UACC-62): > 100 µM (inactive) | GI50 (MDA-MB-231): 24.1 µM (inactive) | GI50 (EKVX): > 100 µM (inactive) | GI50 (HCT-116): > 100 µM (inactive) | GI50 (HCC 2998): > 100 µM (inactive) | GI50 (SF-539): 31.4 µM (inactive) | GI50 (M14): > 100 µM (inactive)

O=C(O)Cc1cc(O)c(CC(=O)O)cc1O
GI50 (UO-31): > 100 µM (inactive) | GI50 (MDA-MB-435): > 100 µM (inactive) | GI50 (HOP-92): > 100 µM (inactive) | GI50 (SR): > 100 µM (inactive) | GI50 (Malme-3M): > 100 µM (inactive) | GI50 (PC-3): > 100 µM (inactive) | GI50 (HCT-15): > 100 µM | GI50 (OVCAR-3): > 100 µM (inactive) | GI50 (OVCAR-5): > 100 µM (inactive) | GI50 (NCI/ADR-RES): > 100 µM (inactive) | GI50 (MDA-N): > 100 µM (inactive) | GI50 (KM12): > 100 µM (inactive) | GI50 (HOP-62): > 100 µM (inactive) | GI50 (OVCAR-8): > 100 µM (inactive) | GI50 (SNB-19): > 100 µM (inactive) | GI50 (786-0): > 100 µM (inactive) | GI50 (UACC-257): > 100 µM (inactive) | GI50 (T47D): > 100 µM (inactive) | GI50 (ACHN): > 100 µM (inactive) | GI50 (SW-620): > 100 µM (inactive) | GI50 (CAKI-1): > 100 µM (inactive) | GI50 (SK-MEL-5): > 100 µM (inactive) | GI50 (HT-29): > 100 µM (inactive) | GI50 (RXF 393): > 100 µM (inactive) | GI50 (BT-549): > 100 µM (inactive) | GI50 (HL-60): > 100 µM (inactive) | GI50 (SK-MEL-28): > 100 µM (inactive) | GI50 (NCI-H23): > 100 µM (inactive) | GI50 (SF-295): > 100 µM (inactive) | GI50 (TK-10): > 100 µM (inactive) | GI50 (MOLT-4): > 100 µM (inactive) | GI50 (SF-268): > 100 µM (inactive) | GI50 (NCI-H226): > 100 µM (inactive) | GI50 (DU-145): > 100 µM (inactive) | GI50 (K562): > 100 µM (inactive) | GI50 (SN12C): > 100 µM (inactive) | GI50 (OVCAR-4): > 100 µM (inactive) | GI50 (Hs-578T): > 100 µM (inactive) | GI50 (LOX IMVI): > 100 µM (inactive) | GI50 (A549): > 100 µM (inactive) | GI50 (A498): > 100 µM (inactive) | GI50 (U-251): > 100 µM (inactive) | GI50 (NCI-H460): > 100 µM (inactive) | GI50 (NCI-H522): > 100 µM (inactive) | GI50 (IGROV-1): > 100 µM (inactive) | GI50 (UACC-62): > 100 µM (inactive) | GI50 (MDA-MB-231): > 100 µM (inactive) | GI50 (EKVX): > 100 µM (inactive) | GI50 (HCT-116): > 100 µM (inactive) | GI50 (HCC 2998): > 100 µM (inactive) | GI50 (SK-MEL-2): > 100 µM (inactive) | GI50 (M14): > 100 µM (inactive)
